Here are results for 15 compounds from patent US20260151403A1, “NEK7 DEGRADERS AND METHODS OF USE THEREOF” (Captor Therapeutics S.A., priority 2022, published 2026).

Counter-ions that a name gives are not always drawn.

The target of assay [1] is NEK7-HiBiT protein (Homo sapiens, UniProt Q8TDX7). As to the kind of experiment: NEK7-HiBiT degradation assay (Nano-Glo HiBiT Lytic Assay) in HEK293 NEK7-HiBiT cells. The format is cell-based. The note with it: 24 h, conc. 0.1, 1 and 10 μM tested, concentration of the table values not stated, mean of 3 technical replicates. Put shortly: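 HEK293 cells with CRISPR knock-in N-terminal HiBiT-tagged NEK7 exposed to compound for 24 h at 37 °C, 5% CO2. Residual NEK7-HiBiT was read as Nano-Glo HiBiT lytic luminescence and expressed as % of DMSO control across triplicates; compounds run at 0.1, 1 and 10 μM.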
NEK7-HiBiT protein, sequence (Q8TDX7 whole entry): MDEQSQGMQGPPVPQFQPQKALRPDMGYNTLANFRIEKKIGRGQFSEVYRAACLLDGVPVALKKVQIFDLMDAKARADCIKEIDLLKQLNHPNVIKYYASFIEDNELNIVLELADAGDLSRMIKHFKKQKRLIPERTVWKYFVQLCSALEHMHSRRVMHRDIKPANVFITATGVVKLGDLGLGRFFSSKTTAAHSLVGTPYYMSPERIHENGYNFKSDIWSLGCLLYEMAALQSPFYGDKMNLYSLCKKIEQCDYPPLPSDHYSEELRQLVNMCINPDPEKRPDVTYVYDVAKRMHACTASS
NEK7-HiBiT protein, sequence (Q96SW2 whole entry, further chain): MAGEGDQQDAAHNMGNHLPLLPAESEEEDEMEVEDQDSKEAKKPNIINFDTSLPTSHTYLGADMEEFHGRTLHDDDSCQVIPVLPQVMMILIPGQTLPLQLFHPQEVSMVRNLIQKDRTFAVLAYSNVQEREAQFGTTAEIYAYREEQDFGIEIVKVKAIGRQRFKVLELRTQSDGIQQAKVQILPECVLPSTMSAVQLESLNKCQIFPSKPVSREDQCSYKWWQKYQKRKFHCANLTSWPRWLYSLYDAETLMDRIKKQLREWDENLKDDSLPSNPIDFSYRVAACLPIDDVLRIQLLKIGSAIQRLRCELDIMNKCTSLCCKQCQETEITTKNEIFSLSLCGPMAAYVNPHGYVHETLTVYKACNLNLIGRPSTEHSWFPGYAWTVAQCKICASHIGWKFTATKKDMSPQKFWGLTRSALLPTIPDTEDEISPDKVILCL
NEK7-HiBiT protein, sequence (Q16531 whole entry partner): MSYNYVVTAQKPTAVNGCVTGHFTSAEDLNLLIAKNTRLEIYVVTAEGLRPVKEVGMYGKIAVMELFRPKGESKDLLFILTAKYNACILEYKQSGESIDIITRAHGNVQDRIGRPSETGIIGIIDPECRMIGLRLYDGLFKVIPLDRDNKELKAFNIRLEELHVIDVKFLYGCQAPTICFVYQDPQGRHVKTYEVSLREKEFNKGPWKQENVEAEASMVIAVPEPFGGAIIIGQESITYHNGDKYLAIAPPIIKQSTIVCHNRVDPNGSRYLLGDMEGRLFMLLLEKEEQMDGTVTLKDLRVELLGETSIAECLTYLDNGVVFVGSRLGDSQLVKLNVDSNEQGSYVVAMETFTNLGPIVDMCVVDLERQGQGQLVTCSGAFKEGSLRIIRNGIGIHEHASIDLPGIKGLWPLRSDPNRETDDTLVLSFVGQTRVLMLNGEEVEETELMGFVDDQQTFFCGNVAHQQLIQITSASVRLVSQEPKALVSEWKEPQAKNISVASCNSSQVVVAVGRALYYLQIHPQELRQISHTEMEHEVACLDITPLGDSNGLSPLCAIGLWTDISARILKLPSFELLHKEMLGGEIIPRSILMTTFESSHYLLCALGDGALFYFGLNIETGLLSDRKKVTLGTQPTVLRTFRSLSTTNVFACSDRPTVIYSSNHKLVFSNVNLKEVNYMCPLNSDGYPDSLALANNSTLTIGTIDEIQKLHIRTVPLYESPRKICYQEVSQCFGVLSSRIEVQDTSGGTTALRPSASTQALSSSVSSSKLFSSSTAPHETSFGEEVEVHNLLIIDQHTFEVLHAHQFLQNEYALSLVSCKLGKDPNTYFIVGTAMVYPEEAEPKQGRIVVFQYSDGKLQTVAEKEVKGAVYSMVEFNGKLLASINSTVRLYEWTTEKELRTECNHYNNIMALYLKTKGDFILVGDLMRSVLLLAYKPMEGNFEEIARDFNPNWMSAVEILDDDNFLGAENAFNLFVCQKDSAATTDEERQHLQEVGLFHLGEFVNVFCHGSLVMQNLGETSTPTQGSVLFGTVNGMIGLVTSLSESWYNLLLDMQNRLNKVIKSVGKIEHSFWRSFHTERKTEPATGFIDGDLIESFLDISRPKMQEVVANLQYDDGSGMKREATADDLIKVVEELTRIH

Assay [2] addresses T1, [NEK7]-[compound of formula (I)]-[CRBN/DDB1] complex (Homo sapiens, UniProt Q8TDX7+Q96SW2). In words: AlphaLISA dose response ternary complex formation assay. Type of assay: binding. The following applies: 1 μM compound; normalized to maximum signal of Compound 2 (positive control) and DMSO background; read-out: Normalized AlphaLISA ternary complex average signal at 1 μM molecule. Put shortly:
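Biotinylated NEK7 (200 nM) on streptavidin donor beads and 6×His-CRBN/Strep-DDB1 (200 nM) on anti-His acceptor beads, each at 40 μg/ml and preincubated 30 min, then mixed and added to compound in HBS pH 7.4, 0.1% Tween-20, 1 mM DTT, 2% DMSO. After 30 min at 25 °C, AlphaLISA signal was read (ex 680/em 615 nm) and normalised to DMSO background and maximal Compound 2 signal.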

Assay [3] concerns the target T1, [NEK7]-[compound of formula (I)]-[CRBN/DDB1] complex. As to the kind of experiment: HTRF ternary complex assay. Type of assay: binding. The following applies: dose-response, 180 min at 25° C.; read-out: HTRF ternary complex Average pEC50 by molecule (converted). Put shortly:
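Mix of 24 nM NEK7, 52.8 nM 6×His-CRBN/Strep-DDB1, 3 nM streptavidin-Eu cryptate and 6.67 nM anti-6×His-d2 in PPI Europium detection buffer with 1 mM DTT, dose-response compound, 0.5% DMSO, 180 min at 25° C. TR-FRET (665/620) read, normalized to DMSO background, Hill-slope fit gave EC50/pEC50.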
In general terms: In TR-FRET formats the signal depends on donor and acceptor labels being close together.

T1 sequence (Q8TDX7 whole entry): as the sequence (Q8TDX7 whole entry) above
T1 sequence (Q96SW2 whole entry): as the sequence (Q96SW2 whole entry, further chain) above
T1 sequence (Q16531 whole entry partner): as the sequence (Q16531 whole entry partner) above

Turning to `O=C1CCC(N2Cc3cc(C4CCCC(=O)N4)ccc3C2=O)C(=O)N1` (stereo not drawn) [Compound 42, 3-(1-oxo-5-(6-oxopiperidin-2-yl)isoindolin-2-yl)piperidine-2,6-dione], in assay [1], the “Levels of NEK7-HiBiT Protein (as a % of DMSO control)” value (“Levels … (as a % of DMSO control)” for short) was “D (Levels of NEK7-HiBiT Protein ≥ 75%)”. For the same compound, in assay [2], the activation at 1 µM was less than 10%. Moreover, in assay [3], the EC50 was more than 3160 nM.

`O=C1CCC(N2Cc3cc(C4CCC(NC(=O)c5ccccc5)CN4)ccc3C2=O)C(=O)N1` (stereo not drawn) [Compound 56, N-(6-(2-(2,6-dioxopiperidin-3-yl)-1-oxoisoindolin-5-yl)piperidin-3-yl)benzamide]: in assay [1], the “Levels … (as a % of DMSO control)” value is given as “A (Levels of NEK7-HiBiT Protein ≤ 25%)”. The activation at 1 µM in assay [2] is more than 80%. The EC50 in assay [3] was less than 100 nM.

As to `O=C1CCC(N2Cc3cc(C4CSCCN4)ccc3C2=O)C(=O)N1` (stereo not drawn) [Compound 57, 3-(1-oxo-5-(thiomorpholin-3-yl)isoindolin-2-yl)piperidine-2,6-dione], the “Levels … (as a % of DMSO control)” value in assay [1] was “C (Levels of NEK7-HiBiT Protein > 50% and <75%)”. For the same compound, the activation at 1 µM in assay [2] lay in the range of 20 to 80%. The EC50 in assay [3] is 100 to 316 nM.

In the case of `O=C1CCC(N2Cc3cc(N4CCCCN4)ccc3C2=O)C(=O)N1` (stereo not drawn) [Compound 58, 3-(1-oxo-5-(tetrahydropyridazin-1 (2H)-yl)isoindolin-2-yl)piperidine-2,6-dione], in assay [1], the “Levels … (as a % of DMSO control)” value was “C (Levels of NEK7-HiBiT Protein > 50% and <75%)”. Moreover, the activation at 1 µM in assay [2] fell in the range of 20 to 80%. The EC50 in assay [3] was 100 to 316 nM.

With `O=C1CCC(N2C(=O)c3cccc4c(C5CCCCN5)ccc2c34)C(=O)N1` (stereo not drawn) [Compound 59, 3-(2-oxo-6-(piperidin-2-yl)benzo[cd]indol-1 (2H)-yl)piperidine-2,6-dione], the “Levels … (as a % of DMSO control)” value in assay [1] is recorded as “D (Levels of NEK7-HiBiT Protein ≥ 75%)”. The activation at 1 µM in assay [2] was less than 10%. In assay [3], the EC50 is more than 3160 nM.

With `O=C1CCC(N2Cc3cc(C4CCCC(C(F)(F)F)N4)ccc3C2=O)C(=O)N1` (stereo not drawn) [Compound 60, 3-(1-oxo-5-(6-(trifluoromethyl)piperidin-2-yl)isoindolin-2-yl)piperidine-2,6-dione], the “Levels … (as a % of DMSO control)” value in assay [1] was “C (Levels of NEK7-HiBiT Protein > 50% and <75%)”. In addition, the activation at 1 µM in assay [2] is less than 10%. Also, the EC50 in assay [3] is 316 to 1000 nM.

For `O=C1CCC(N2Cc3cc(C4COCCN4)ccc3C2=O)C(=O)N1` (stereo not drawn) [Compound 61, 3-(5-(morpholin-3-yl)-1-oxoisoindolin-2-yl)piperidine-2,6-dione], the “Levels … (as a % of DMSO control)” value in assay [1] was “C (Levels of NEK7-HiBiT Protein > 50% and <75%)”. Further, the activation at 1 µM in assay [2] was 10 to 20%. Also, the EC50 in assay [3] was 100 to 316 nM.

In the case of `O=C1CCC(N2Cc3cc(C4CCCCCN4)ccc3C2=O)C(=O)N1` (stereo not drawn) [Compound 62, 3-(5-(azepan-2-yl)-1-oxoisoindolin-2-yl)piperidine-2,6-dione], the “Levels … (as a % of DMSO control)” value in assay [1] is “B (Levels of NEK7-HiBiT Protein > 25% and ≤50%)”. Besides, the activation at 1 µM in assay [2] was 20 to 80%. For the same compound, in assay [3], the EC50 is 316 to 1000 nM.

With `O=C1CCCC(N2Cc3cc(C4CCCCN4)ccc3C2=O)C(=O)N1` (stereo not drawn) [Compound 65, 3-(1-oxo-5-(piperidin-2-yl)isoindolin-2-yl)azepane-2,7-dione], the “Levels … (as a % of DMSO control)” value in assay [1] was “C (Levels of NEK7-HiBiT Protein > 50% and <75%)”. The activation at 1 µM in assay [2] was less than 10%. In assay [3], the EC50 was more than 3160 nM.

On to `O=C1CCC(N2C(=O)c3ccc(C4CCCCN4)c4cccc2c34)C(=O)N1` (stereo not drawn) [Compound 66, 3-(2-oxo-5-(piperidin-2-yl)benzo[cd]indol-1 (2H)-yl)piperidine-2,6-dione trifluoroacetate], for which the “Levels … (as a % of DMSO control)” value in assay [1] was “B (Levels of NEK7-HiBiT Protein > 25% and ≤50%)”. For the same compound, the activation at 1 µM in assay [2] fell in the range of 10 to 20%. Also, in assay [3], the EC50 is 100 to 316 nM.

In the case of `CN1CCNC(c2ccc3c(c2)CN(C2CCC(=O)NC2=O)C3=O)C1` (stereo not drawn) [Compound 67, 3-(5-(4-methylpiperazin-2-yl)-1-oxoisoindolin-2-yl)piperidine-2,6-dione], in assay [1], the “Levels … (as a % of DMSO control)” value is “B (Levels of NEK7-HiBiT Protein > 25% and ≤50%)”. Besides, the activation at 1 µM in assay [2] lay within 10 to 20%. Also, in assay [3], the EC50 is more than 3160 nM.

For the compound `O=C1CCC(N2Cc3cc(C4COCCO4)ccc3C2=O)C(=O)N1` (stereo not drawn) [Compound 68, 3-(5-(1,4-dioxan-2-yl)-1-oxoisoindolin-2-yl)piperidine-2,6-dione], the “Levels … (as a % of DMSO control)” value in assay [1] is on record as “D (Levels of NEK7-HiBiT Protein ≥ 75%)”. The activation at 1 µM in assay [2] fell in the range of 10 to 20%. The EC50 in assay [3] was 316 to 1000 nM.

For `O=C1CCC(N2Cc3c(csc3C3CCCCO3)C2=O)C(=O)N1` (stereo not drawn) [Compound 71, 3-(4-oxo-1-(tetrahydro-2H-pyran-2-yl)-4H-thieno[3,4-c]pyrrol-5 (6H)-yl)piperidine-2,6-dione], in assay [1], the “Levels … (as a % of DMSO control)” value is reported as “D (Levels of NEK7-HiBiT Protein ≥ 75%)”. In addition, the activation at 1 µM in assay [2] is less than 10%. Moreover, the EC50 in assay [3] is more than 3160 nM.

Regarding `O=C1CCC(N2Cc3cc(C4CCCCN4)sc3C2=O)C(=O)N1` (stereo not drawn) [Compound 72, 3-(6-oxo-2-(piperidin-2-yl)-4,6-dihydro-5H-thieno[2,3-c]pyrrol-5-yl)piperidine-2,6-dione], in assay [1], the “Levels … (as a % of DMSO control)” value was “C (Levels of NEK7-HiBiT Protein > 50% and <75%)”. The activation at 1 µM in assay [2] was less than 10%. In addition, in assay [3], the EC50 was more than 3160 nM.

As for `O=C1CCC(N2Cc3cc(C4CCCCO4)sc3C2=O)C(=O)N1` (stereo not drawn) [Compound 73, 3-(6-oxo-2-(tetrahydro-2H-pyran-2-yl)-4,6-dihydro-5H-thieno[2,3-c]pyrrol-5-yl)piperidine-2,6-dione], the “Levels … (as a % of DMSO control)” value in assay [1] was “D (Levels of NEK7-HiBiT Protein ≥ 75%)”. Also, in assay [2], the activation at 1 µM is less than 10%. Also, the EC50 in assay [3] is more than 3160 nM.
